How the values were obtained:
OVCAR-3 = experiment: WST-1 IC50 determination, OVCAR-3; format: cell-based, human; details: 72 hours, WST-1; for IC50: read-out: Anticancer activity IC50 ± SD, OVCAR-3
Experimental: (§1) Cell lines and culturing. The following human cell lines were purchased from ATCC (ATCC, Manassas, Va.): prostate cancer cells (PC-3), triple negative breast cancer cells (MDA-MB-231), ovarian cancer cells (OVCAR-3), normal bone marrow (NBM) and normal fibroblast cells (MCR5A). MDA-MB-231 cells were grown at 37° C. with 5% CO2 atmosphere with DMEM (Life technologies, Carlsbad, Calif.) supplemented with heat-inactivated 10% (V/V) fetal bovine serum. OVCAR-3 and PC-3 cells were grown at 37° C. with 5% CO2 atmosphere with RPMI (Life technologies, Carlsbad, Calif.) supplemented with heat-inactivated 10% (V/V) fetal bovine serum. Cell lines were grown and maintained according to ATCC recommendations.
(§2) IC50 determination. Cell lines were seeded into 96-well plates the afternoon prior to treatment. Cell seeding number was determined by growing cells in log phase growth during drug treatment. Approximately 18 hours later, compounds were semi-serially diluted in dimethyl sulfoxide (DMSO) and then growth medium, and added to cells. Plates were incubated for 72 hours prior to addition of WST-1 (Promega, Madison Wis.). Plates were read after 4 additional hours of incubation at 37° C. using a Bio-Tek Synergy HT plate reader (Bio-Tek, Winooski, Vt.). Data was analyzed, graphed and IC50s generated using GraphPad Prism Software (Graphpad, La Jolla, Calif.).
(§3) IC50 determination: For the determination of IC50 for the azolamide class, the same protocol as described previously was followed.

PC-3 = experiment: WST-1 IC50 determination, PC-3; format: cell-based, human; details: 72 hours, WST-1; for IC50: read-out: Anticancer activity IC50 ± SD, PC-3
Experimental: as §1, §2, §3

MDA-MB-231 = experiment: WST-1 IC50 determination, MDA-MB-231; format: cell-based, human; details: 72 hours, WST-1; for IC50: read-out: Anticancer activity IC50 ± SD, MDA-MB-231
Experimental: as §1, §2, §3

F21T = experiment: FRET melting assay, F21T; format: binding; details: dual-labeled DNA 0.2 μM, DMZ analogues 1 μM, potassium cacodylate 60 mM pH 7.2
Experimental: (§4) Fluorescence resonance energy transfer (FRET) assay to determine Tm in absence and presence of ligands. Dual-labelled DNA was diluted from stock (50 μM) to 400 nM in 60 mM potassium cacodylate buffer (pH 7.2) and then annealed by heating at 85° C. for 10 min followed by cooling to room temperature in the heating block. Compounds were diluted from stock (20 mM in DMSO) to 2 μM in 60 mM cacodylate buffer (pH 7.2). 25 μL annealed DNA was added to 96-well plate followed by 25 μL diluted compounds. The sequences of labelled oligonucleotides were as follows: F21T 21-mer (5′-FAM-GGGTTAGGGTTAGGGTTAGGG-TAMRA-3′) (SEQ ID NO:11), c-kit2 26-mer (5′-FAM-CCCGGGCGGGCGCGAGGGAGGGGAGG-TAMRA-3′) (SEQ ID NO:12), k-RAS21R 21-mer (5′-FAM-AGGGCGGTGTGGGAAGAGGGA-TAMRA-3′) (SEQ ID NO:13), c-MYC 22-mer (5′-FAM-TGAGGGTGGGTAGGGTGGGTAA-TAMRA-3′) (SEQ ID NO:14) and duplex 26-mer (5′-FAM-TATAGCTATATTTTTTTATAGCTATA-TAMRA-3′) (SEQ ID NO: 15). Measurements were made in triplicate by using a LightCycler 480 System RT-PCR machine (Roche) and average values were reported. Fluorescence readings were made with excitation at 450-495 nm and detection at 515-545 nm, taken at intervals of 1.2° C./min in the range 25° C. to 95° C.

c-MYC = experiment: FRET melting assay, c-MYC; format: binding; details: dual-labeled DNA 0.2 μM, DMZ analogues 1 μM, potassium cacodylate 60 mM pH 7.2
Experimental: as §4

c-kit2 = experiment: FRET melting assay, c-kit2; format: binding; details: dual-labeled DNA 0.2 μM, DMZ analogues 1 μM, potassium cacodylate 60 mM pH 7.2
Experimental: as §4

k-RAS21R = experiment: FRET melting assay, k-RAS21R; format: binding; details: dual-labeled DNA 0.2 μM, DMZ analogues 1 μM, potassium cacodylate 60 mM pH 7.2
Experimental: as §4

duplex = experiment: FRET melting assay, duplex DNA; format: binding; details: dual-labeled DNA 0.2 μM, DMZ analogues 1 μM, potassium cacodylate 60 mM pH 7.2
Experimental: as §4

| SMILES | Anticancer activity IC50 ± SD, OVCAR-3 (OVCAR-3) | Anticancer activity IC50 ± SD, PC-3 (PC-3) | Anticancer activity IC50 ± SD, MDA-MB-231 (MDA-MB-231) | ΔTm F21T (F21T) [°C] | ΔTm c-MYC (c-MYC) [°C] | ΔTm c-kit2 (c-kit2) [°C] | ΔTm k-RAS21R (k-RAS21R) [°C] | ΔTm duplex (duplex) | IC50 (OVCAR-3) [µM] | IC50 (PC-3) [µM] | IC50 (MDA-MB-231) [µM] |
| --- | --- | --- | --- | --- | --- | --- | --- | --- | --- | --- | --- |
| N=C(N)c1ccc(N)cc1 [4-aminobenzamidine, reference compound] | NE (NE means not effective. Cell viability was the same or greater than 75% of the DMSO control at 20 μM compound concentration.) | NE (NE means not effective. Cell viability was the same or greater than 75% of the DMSO control at 20 μM compound concentration.) | NE (NE means not effective. Cell viability was the same or greater than 75% of the DMSO control at 20 μM compound concentration.) |  |  |  |  |  |  |  |  |
| N#Cc1ccc(NN=Nc2ccc(C(=N)N)cc2)cc1 [DMZ2] | NE (NE means not effective. Cell viability was the same or greater than 75% of the DMSO control at 20 μM compound concentration.) | NE (NE means not effective. Cell viability was the same or greater than 75% of the DMSO control at 20 μM compound concentration.) | NE (NE means not effective. Cell viability was the same or greater than 75% of the DMSO control at 20 μM compound concentration.) | 4.20 ± 0.00 | 8.06 ± 0.68 | 5.30 ± 0.26 | 7.49 ± 0.00 | NE (NE means not effective binding (ΔTm < 1° C.)) |  |  |  |
| C#Cc1ccc(NN=Nc2ccc(C(=N)N)cc2)cc1 [DMZ3] |  |  |  | 4.57 ± 0.26 | 7.13 ± 0.45 | 5.30 ± 0.26 | 5.66 ± 0.51 | NE (NE means not effective binding (ΔTm < 1° C.)) | 11.8 ± 1.7 | 22.5 ± 8.8 | 30.2 ± 1.8 |
| N#Cc1cccc(NN=Nc2ccc(C(=N)N)cc2)c1 [DMZ4] | NE (NE means not effective. Cell viability was the same or greater than 75% of the DMSO control at 20 μM compound concentration.) | NE (NE means not effective. Cell viability was the same or greater than 75% of the DMSO control at 20 μM compound concentration.) | NE (NE means not effective. Cell viability was the same or greater than 75% of the DMSO control at 20 μM compound concentration.) | 4.57 ± 0.26 | 6.94 ± 0.26 | 6.22 ± 0.26 | 2.00 ± 0.45 | NE (NE means not effective binding (ΔTm < 1° C.)) |  |  |  |
| C#Cc1cccc(NN=Nc2ccc(C(=N)N)cc2)c1 [DMZ5] |  |  |  | 4.39 ± 0.26 | 7.51 ± 0.26 | 5.48 ± 0.45 | 6.39 ± 0.89 | NE (NE means not effective binding (ΔTm < 1° C.)) | 16.8 ± 3.1 | 18 ± 5.7 | 20.5 ± 4.2 |
| N=C(N)c1ccc(N=NNc2cccc(-c3ccccc3)c2)cc1 [DMZ6] | NE (NE means not effective. Cell viability was the same or greater than 75% of the DMSO control at 20 μM compound concentration.) | NE (NE means not effective. Cell viability was the same or greater than 75% of the DMSO control at 20 μM compound concentration.) | NE (NE means not effective. Cell viability was the same or greater than 75% of the DMSO control at 20 μM compound concentration.) | 4.57 ± 0.26 | 7.49 ± 0.26 | 5.48 ± 0.45 | 4.20 ± 0.90 | NE (NE means not effective binding (ΔTm < 1° C.)) |  |  |  |
| N=C(N)c1ccc(N=NNc2cccc(C#Cc3ccccc3)c2)cc1 [DMZ7] |  |  |  | 4.20 ± 0.00 | 7.33 ± 0.26 | 6.40 ± 0.26 | 2.56 ± 0.00 | NE (NE means not effective binding (ΔTm < 1° C.)) | 6.5 ± 2.1 | 5.8 ± 0.2 | 9.5 ± 1.3 |
